Results taken from patent US10597388B2, “Pyridazinone herbicides” (FMC CORPORATION, priority 2014, dated 2020).

Columns and labels:
Assay in all cases: Test C greenhouse herbicide test, pre- and postemergence
Format in all cases: in vivo
[1] = system: blackgrass (Alopecurus myosuroides)
Summary of the method: (§1)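 Greenhouse pots; pre-em on seeded loam:sand blend, post-em on 2–18 cm plants (1–4 leaf) in sphagnum peat/vermiculite medium. Formulation: non-phytotoxic solvent + surfactant. Read-out: visual % control (0–100) vs controls at 13–15 d.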

[2] = system: foxtail, giant (giant foxtail, Setaria faberii)
Summary of the method: as §1

[3] = system: barnyardgrass (Echinochloa crus-galli)
Summary of the method: as §1

corn (Zea mays) = system: corn (Zea mays)
Summary of the method: as §1

[4] = system: crabgrass, large (large crabgrass, Digitaria sanguinalis)
Summary of the method: as §1

[5] = system: nutsedge, yellow (yellow nutsedge, Cyperus esculentus); details: Preemergence; for Plant response rating, Nutsedge, Yellow: scale 0 to 100, 0 is no effect, 100 is complete control; for Nutsedge, Yellow plant response rating: 250 g ai/ha, scale 0 to 100, 0 no effect, 100 complete control
Summary of the method: as §1

soybean (Glycine max) = system: soybean (Glycine max)
Summary of the method: as §1

[6] = system: johnsongrass (Sorghum halepense)
Summary of the method: as §1

[7] = system: velvetleaf (Abutilon theophrasti)
Summary of the method: as §1

[8] = system: wheat (winter wheat, Triticum aestivum)
Summary of the method: as §1

[9] = system: ryegrass, Italian (Italian ryegrass, Lolium multiflorum)
Summary of the method: as §1

[10] = system: galium (catchweed bedstraw, Galium aparine)
Summary of the method: as §1

[11] = Postemergence, 31 g ai/ha, 0 to 100 scale (0 no effect, 100 complete control)
[12] = Postemergence, 125 g ai/ha, scale 0 to 100, 0 is no effect, 100 is complete control
[13] = Postemergence, 250 g ai/ha, scale 0 to 100, 0 no effect, 100 complete control, 13 to 15 d
[14] = Preemergence, 31 g ai/ha, scale 0 to 100, 0 is no effect, 100 is complete control
[15] = Preemergence, 62 g ai/ha, scale 0 to 100, 0 is no effect, 100 is complete control
[16] = Preemergence, 125 g ai/ha, scale 0 to 100, 0 is no effect, 100 is complete control
[17] = Preemergence, 250 g ai/ha, scale 0 to 100, 0 no effect, 100 complete control
[18] = postemergence, 62 g ai/ha, scale 0 to 100, 0 no effect, 100 complete control

CCc1oc2ccc(C)cc2c1-c1c(O)c(C)nn(C)c1=O [Compound 10, 4-(2-ethyl-5-methyl-3-benzofuranyl)-5-hydroxy-2,6-dimethyl-3(2H)-pyridazinone]
Blackgrass plant response rating [1, 11]: 0 | Plant response rating, Blackgrass [1, 12]: 10 | Plant response rating, Blackgrass [1, 13]: 15 | Plant response rating, Blackgrass [1, 14]: 0 | Plant response rating, Blackgrass [1, 15]: 0 | Plant response rating, Blackgrass [1, 16]: 0 | Blackgrass plant response rating [1, 17]: 0 | Blackgrass plant response rating [1, 18]: 0 | Foxtail, Giant plant response rating [2, 11]: 70 | Plant response rating, Foxtail, Giant [2, 12]: 50 | Plant response rating, Foxtail, Giant [2, 13]: 90 | Plant response rating, Foxtail, Giant [2, 14]: 0 | Plant response rating, Foxtail, Giant [2, 15]: 0 | Plant response rating, Foxtail, Giant [2, 16]: 0 | Foxtail, Giant plant response rating [2, 17]: 0 | Foxtail, Giant plant response rating [2, 18]: 60 | Barnyardgrass plant response rating [3, 11]: 35 | Plant response rating, Barnyardgrass [3, 12]: 90 | Plant response rating, Barnyardgrass [3, 13]: 98 | Plant response rating, Barnyardgrass [3, 14]: 0 | Plant response rating, Barnyardgrass [3, 15]: 5 | Plant response rating, Barnyardgrass [3, 16]: 5 | Barnyardgrass plant response rating [3, 17]: 5 | Barnyardgrass plant response rating [3, 18]: 90 | Corn plant response rating (corn (Zea mays); [11]): 0 | Plant response rating, Corn (corn (Zea mays); [12]): 5 | Plant response rating, Corn (corn (Zea mays); [13]): 5 | Plant response rating, Corn (corn (Zea mays); [14]): 0 | Plant response rating, Corn (corn (Zea mays); [15]): 0 | Plant response rating, Corn (corn (Zea mays); [16]): 0 | Corn plant response rating (corn (Zea mays); [17]): 5 | Corn plant response rating (corn (Zea mays); [18]): 0 | Crabgrass, Large plant response rating [4, 11]: 10 | Plant response rating, Crabgrass, Large [4, 12]: 65 | Plant response rating, Crabgrass, Large [4, 13]: 75 | Plant response rating, Crabgrass, Large [4, 14]: 0 | Plant response rating, Crabgrass, Large [4, 15]: 0 | Plant response rating, Crabgrass, Large [4, 16]: 0 | Crabgrass, Large plant response rating [4, 17]: 0 | Crabgrass, Large plant response rating [4, 18]: 30 | Plant response rating, Nutsedge, Yellow ([5]; 31 g ai/ha): 0 | Plant response rating, Nutsedge, Yellow ([5]; 62 g ai/ha): 0 | Plant response rating, Nutsedge, Yellow ([5]; 125 g ai/ha): 0 | Nutsedge, Yellow plant response rating [5]: 0 | Soybean plant response rating (soybean (Glycine max); [11]): 0 | Plant response rating, Soybean (soybean (Glycine max); [12]): 0 | Plant response rating, Soybean (soybean (Glycine max); [13]): 0 | Plant response rating, Soybean (soybean (Glycine max); [15]): 0 | Plant response rating, Soybean (soybean (Glycine max); [16]): 0 | Soybean plant response rating (soybean (Glycine max); [17]): 0 | Soybean plant response rating (soybean (Glycine max); [18]): 0 | Johnsongrass plant response rating [6, 11]: 0 | Plant response rating, Johnsongrass [6, 12]: 5 | Plant response rating, Johnsongrass [6, 13]: 25 | Plant response rating, Johnsongrass [6, 14]: 0 | Plant response rating, Johnsongrass [6, 15]: 0 | Plant response rating, Johnsongrass [6, 16]: 0 | Johnsongrass plant response rating [6, 17]: 0 | Johnsongrass plant response rating [6, 18]: 0 | Velvetleaf plant response rating [7, 11]: 40 | Plant response rating, Velvetleaf [7, 12]: 40 | Plant response rating, Velvetleaf [7, 13]: 70 | Plant response rating, Velvetleaf [7, 15]: 0 | Plant response rating, Velvetleaf [7, 16]: 10 | Velvetleaf plant response rating [7, 17]: 50 | Velvetleaf plant response rating [7, 18]: 45 | Wheat plant response rating [8, 11]: 0 | Plant response rating, Wheat [8, 12]: 0 | Plant response rating, Wheat [8, 13]: 0 | Plant response rating, Wheat [8, 15]: 0 | Plant response rating, Wheat [8, 16]: 0 | Wheat plant response rating [8, 17]: 0 | Wheat plant response rating [8, 18]: 0 | Ryegrass, Italian plant response rating [9, 11]: 5 | Plant response rating, Ryegrass, Italian [9, 12]: 20 | Plant response rating, Ryegrass, Italian [9, 13]: 55 | Plant response rating, Ryegrass, Italian [9, 14]: 0 | Plant response rating, Ryegrass, Italian [9, 15]: 0 | Plant response rating, Ryegrass, Italian [9, 16]: 25 | Ryegrass, Italian plant response rating [9, 17]: 80 | Ryegrass, Italian plant response rating [9, 18]: 5 | Galium plant response rating [10, 11]: 5 | Plant response rating, Galium [10, 12]: 70 | Plant response rating, Galium [10, 13]: 85 | Plant response rating, Galium [10, 14]: 0 | Plant response rating, Galium [10, 15]: 5 | Plant response rating, Galium [10, 16]: 5 | Galium plant response rating [10, 17]: 45 | Galium plant response rating [10, 18]: 50

CC(=O)Oc1c(Cl)nn(C)c(=O)c1-c1c(C)sc2ccc(Cl)cc12 [Compound 116]
Plant response rating, Blackgrass [1, 14]: 0 | Plant response rating, Blackgrass [1, 15]: 5 | Plant response rating, Blackgrass [1, 16]: 30 | Blackgrass plant response rating [1, 17]: 35 | Plant response rating, Barnyardgrass [3, 14]: 5 | Plant response rating, Barnyardgrass [3, 15]: 30 | Plant response rating, Barnyardgrass [3, 16]: 70 | Barnyardgrass plant response rating [3, 17]: 95 | Plant response rating, Corn (corn (Zea mays); [14]): 0 | Plant response rating, Corn (corn (Zea mays); [15]): 0 | Plant response rating, Corn (corn (Zea mays); [16]): 60 | Corn plant response rating (corn (Zea mays); [17]): 25 | Plant response rating, Crabgrass, Large [4, 14]: 0 | Plant response rating, Crabgrass, Large [4, 15]: 20 | Plant response rating, Crabgrass, Large [4, 16]: 50 | Crabgrass, Large plant response rating [4, 17]: 90 | Plant response rating, Nutsedge, Yellow ([5]; 31 g ai/ha): 0 | Plant response rating, Nutsedge, Yellow ([5]; 62 g ai/ha): 35 | Plant response rating, Nutsedge, Yellow ([5]; 125 g ai/ha): 85 | Nutsedge, Yellow plant response rating [5]: 95 | Plant response rating, Soybean (soybean (Glycine max); [15]): 0 | Plant response rating, Soybean (soybean (Glycine max); [16]): 0 | Soybean plant response rating (soybean (Glycine max); [17]): 5 | Plant response rating, Johnsongrass [6, 14]: 0 | Plant response rating, Johnsongrass [6, 15]: 0 | Plant response rating, Johnsongrass [6, 16]: 0 | Johnsongrass plant response rating [6, 17]: 10 | Plant response rating, Velvetleaf [7, 14]: 70 | Plant response rating, Velvetleaf [7, 15]: 85 | Plant response rating, Velvetleaf [7, 16]: 100 | Velvetleaf plant response rating [7, 17]: 100 | Plant response rating, Wheat [8, 14]: 0 | Plant response rating, Wheat [8, 15]: 0 | Plant response rating, Wheat [8, 16]: 5 | Wheat plant response rating [8, 17]: 15 | Plant response rating, Ryegrass, Italian [9, 14]: 5 | Plant response rating, Ryegrass, Italian [9, 15]: 30 | Plant response rating, Ryegrass, Italian [9, 16]: 70 | Ryegrass, Italian plant response rating [9, 17]: 90 | Plant response rating, Galium [10, 14]: 60 | Plant response rating, Galium [10, 15]: 85 | Plant response rating, Galium [10, 16]: 100 | Galium plant response rating [10, 17]: 100
